Data reported in US12247004B2, “2-amino-N-(amino-oxo-aryl-lambda6-sulfanylidene)acetamide compounds and their therapeutic use” (Oxford Drug Design Limited, priority 2019, dated 2025).
Like-named read-outs stand apart in the source and are kept apart here.

Assays:
[1] = target: Leucyl-tRNA synthetase (LeuRS) (Escherichia coli (strain K12), UniProt P07813); experiment: Leucyl-tRNA synthetase enzyme inhibition (AMP-Glo; single point % inhibition at 100 μM and IC50); assay type: biochemical
[2] = Human cell viability / cytotoxicity (CellTiter-Glo, 24 hours); assay type: cell-based; details: human, HepG2 cells (ATCC HB-8065); HepG2 ATCC HB-8065, 24 hours; read-out: Cytotoxicity in HepG2 ATCC HB-8065 Cell Line, IC50
Method in brief: (§1)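 HepG2 cells (15,000/well, MEM with 1% NEAA and 1% pyruvate) were grown 2 days, then exposed to compounds in duplicate for 24 h at 1.28% DMSO. Viability was read as ATP by CellTiter-Glo luminescence relative to DMSO-only wells. IC50 is in μg/mL.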

E. coli UT189 = experiment: Efficacy in a murine model of urinary tract infection (microbial burden in urine, bladder, kidney); assay type: in vivo; details: Experiment 1, mouse UTI
Method: All animal studies were performed under UK Home Office License PA67E0BAA (protocol E9 for UTI model) with local ethical committee clearance. All studies were performed by technicians who have completed parts A, B and C of the UK Home Office Personal License course and hold current personal licenses. All experiments were performed in dedicated Biohazard 2 facilities (the site holds a Certificate of Designation). Female mice used in these studies were supplied by Janvier laboratories and were specific pathogen free. The strain of mouse used was C3H/HeNRj, which is a well characterized inbred strain. Mice were 16-20 g on receipt and were allowed to acclimatize for at least 7 days prior to any intervention. Five days prior to infection mice were transferred onto drinking water containing 5% glucose. […] It was stored at 4° C. between doses. Test articles were prepared by solubilising in water for injection, taking the salt correction factor into account. […] Mice (n=6 per group) were infected by directly administering 0.05 mL of inoculum via the urethra into the bladder under parenteral anaesthesia. Drinking water was withheld two hours pre-infection and bladders were emptied prior to infection. Once infected, infection catheters were left in the urinary tract for 10 minutes to reduce the risk of the organism flowing back out. The mice were monitored at a frequency appropriate for their clinical condition. Mouse weights were recorded at least once daily both to ensure animals remained within ethical limits and to monitor efficacy of treatment. Twenty-four hours post infection, urine was collected from pre-treatment animals and used to assess the infection level. Urine samples were quantitatively cultured onto MacConkey's agar plates and incubated at 37° C. for 24 hours before colonies were counted. In addition, five mice were euthanised by pentobarbitone overdose to provide a 24 hour pre-treatment control group. Forty-eight hours post-infection, urine was collected from all mice. Seventy-two hours post infection, the clinical condition and body weight of all remaining animals was assessed and urine samples were collected. Animals were then euthanised by pentobarbitone overdose and kidneys and bladders were removed and weighed. Tissue samples were homogenized using a Precellys 24 dual bead beater in 2 mL ice cold sterile phosphate buffered saline. Homogenates and urine samples were quantitatively cultured onto MacConkey's agar plates and incubated at 37° C. for 24 hours before colonies were counted. Data Analysis The data from the culture burdens were analysed using appropriate non-parametric statistical models (Kruskal-Wallis using Conover-Inman to make all pairwise comparisons between groups) with StatsDirect software, and compared to pretreatment and vehicle controls.

[3] = system: bacteria (ATCC reference strains); experiment: Antibacterial activity, MIC by broth micro-dilution (CLSI)
E. coli ATCC 25922 = experiment: Efficacy in a murine model of disseminated infection (microbial burden in blood, kidney, spleen); assay type: in vivo; details: mouse, harvest 5 hr
[4] = target: Isoleucyl-tRNA synthetase (IleRS) (Escherichia coli (strain K12), UniProt P00956); experiment: Isoleucyl-tRNA synthetase enzyme inhibition (AMP-Glo; single point % inhibition at 100 μM and IC50); assay type: biochemical
Source text: (§2) Study 1—Enzyme Inhibition
The aminoacylation reaction catalyzed by aminoacyl-tRNA synthetases (aaRS) takes place in two steps. In the first step, aaRS activates its cognate amino acid with ATP; and in the second step the activated amino acid is loaded to its corresponding tRNA. This reaction can be summarized as follows: aaRS+aa+ATP=aaRS-aa-AMP+PPi aaRS-aa-AMP+tRNA=aa-tRNA+AMP+aaRS […]
(§3) wherein: aaRS, aminoacyl-tRNA synthetase; aa, amino acid; aaRS-aa-AMP, enzyme-bound to aminoacyl-adenylate; AMP, adenosine monophosphate; aa-tRNA, aminoacyl-tRNA, PPi, inorganic pyrophosphate.
Isoleucyl-tRNA Synthetase a. Single Point Percentage Inhibition
(§4) The activity of the pathogenic aaRSs was monitored by measuring AMP production using the commercial kit AMP-Glo (Promega, Madison, USA).
Ligand stock solutions were prepared in 100% DMSO at 10 mM concentration. An assay buffer consisting of 100 mM Tris HCl pH 7.6, 40 mM MgCl, 20 mM KCl and 150 mM NaCl was prepared in dH2O. An enzyme solution containing 51.77 μM IleRS was prepared in assay buffer to provide 30 nM final assay concentration and 75 nM reservoir concentration for a 1:2.5 dilution in the assay. A substrate solution was also prepared in assay buffer with 50 mM L-isoleucine, 10 mM ATP and 100 mg/mL tRNA. A final assay concentration of 500 μM L-isoleucine, 5 μM ATP and 1 mg/mL tRNA and reservoir concentration of 833.33 μM L-isoleucine, 8.33 μM ATP and 1.67 mg/mL tRNA was used for a 1:1.66 dilution in assay.
(§5) Enzyme percentage inhibition values were recorded in triplicate at a single point concentration of 100 μM.
(§6) Using the same enzymatic assay in a 384-well plate format, ten point concentration response curves were generated for each compound using a top concentration of 100 μM. The known inhibitor, IleAMS was used as a positive control for the IleRS assay. 100% DMSO was used as a negative control. The IC50 was calculated based on non-linear regression analysis.

[5] = target: Valyl-tRNA synthetase (ValRS) (Escherichia coli (strain K12), UniProt P07118); experiment: Valyl-tRNA synthetase enzyme inhibition (AMP-Glo; single point % inhibition at 100 μM and IC50); assay type: biochemical
Source text: as §2
The aminoacylation reaction catalyzed by aminoacyl-tRNA synthetases (aaRS) takes place in two steps. In the first step, aaRS activates its cognate amino acid with ATP; and in the second step the activated amino acid is loaded to its corresponding tRNA. This reaction can be summarized as follows: aaRS+aa+ATP=aaRS-aa-AMP+PPi aaRS-aa-AMP+tRNA=aa-tRNA+AMP+aaRS
as §3
a. Single Point Percentage Inhibition
as §4
Ligand stock solutions were prepared in 100% DMSO at 10 mM concentration. An assay buffer consisting of 100 mM Tris HCl pH 7.6, 40 mM MgCl, 20 mM KCl and 150 mM NaCl was prepared in dH2O. An enzyme solution containing 42.33 μM ValRS was prepared in assay buffer to provide 30 nM final assay concentration and 75 nM reservoir concentration for a 1:2.5 dilution in the assay. A substrate solution was also prepared in assay buffer with 50 mM L-valine, 10 mM ATP and 100 mg/mL tRNA. A final assay concentration of 500 μM L-valine, 2.5 μM ATP and 0.5 mg/mL tRNA and reservoir concentration of 833.33 μM L-valine, […] and 0.83 mg/mL tRNA was used for a 1:1.66 dilution in assay.
as §5
as §6, with “ValAMS” for “IleAMS”, “ValRS” for “IleRS”

HepG2 ATCC HB-8065 cells = experiment: Human cell viability / cytotoxicity (CellTiter-Glo, 24 hours); assay type: cell-based; details: HepG2 ATCC HB-8065, 24 hours
Method in brief: as §1

[6] = 1.875 mg/kg/dose sc 1 and 3 hr post-infection
[7] = 7.5 mg/kg/dose po 1 and 3 hr post-infection
[8] = 7.5 mg/kg/dose sc 1 and 3 hr post-infection
[9] = 30 mg/kg/dose po 1 and 3 hr post-infection
[10] = 30 mg/kg/dose sc 1 and 3 hr post-infection

Sequence of Valyl-tRNA synthetase (ValRS) (P07118 whole entry): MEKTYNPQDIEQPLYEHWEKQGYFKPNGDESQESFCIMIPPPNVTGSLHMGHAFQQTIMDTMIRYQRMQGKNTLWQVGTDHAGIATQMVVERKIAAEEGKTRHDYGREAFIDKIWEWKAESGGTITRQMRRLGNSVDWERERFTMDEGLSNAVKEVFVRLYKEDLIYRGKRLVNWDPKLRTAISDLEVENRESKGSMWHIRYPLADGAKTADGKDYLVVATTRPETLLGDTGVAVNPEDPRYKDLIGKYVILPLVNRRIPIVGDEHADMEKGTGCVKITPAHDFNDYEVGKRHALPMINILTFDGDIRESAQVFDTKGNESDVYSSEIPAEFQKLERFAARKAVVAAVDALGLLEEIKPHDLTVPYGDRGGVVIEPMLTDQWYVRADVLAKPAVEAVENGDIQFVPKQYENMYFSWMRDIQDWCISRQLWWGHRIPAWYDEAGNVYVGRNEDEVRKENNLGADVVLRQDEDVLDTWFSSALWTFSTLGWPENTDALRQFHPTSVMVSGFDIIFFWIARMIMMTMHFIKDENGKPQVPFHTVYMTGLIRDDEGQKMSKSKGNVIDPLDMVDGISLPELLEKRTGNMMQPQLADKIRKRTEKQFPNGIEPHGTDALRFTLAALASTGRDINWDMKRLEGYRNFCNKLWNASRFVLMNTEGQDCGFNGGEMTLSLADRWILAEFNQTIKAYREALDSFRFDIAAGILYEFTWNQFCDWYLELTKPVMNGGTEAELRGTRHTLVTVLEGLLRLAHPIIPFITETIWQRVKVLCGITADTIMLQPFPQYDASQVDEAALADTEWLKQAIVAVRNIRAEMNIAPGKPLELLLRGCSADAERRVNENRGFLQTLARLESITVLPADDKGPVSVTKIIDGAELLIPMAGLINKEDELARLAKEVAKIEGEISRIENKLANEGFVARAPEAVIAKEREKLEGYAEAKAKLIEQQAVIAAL
Sequence of Isoleucyl-tRNA synthetase (IleRS) (P00956 whole entry, looked up): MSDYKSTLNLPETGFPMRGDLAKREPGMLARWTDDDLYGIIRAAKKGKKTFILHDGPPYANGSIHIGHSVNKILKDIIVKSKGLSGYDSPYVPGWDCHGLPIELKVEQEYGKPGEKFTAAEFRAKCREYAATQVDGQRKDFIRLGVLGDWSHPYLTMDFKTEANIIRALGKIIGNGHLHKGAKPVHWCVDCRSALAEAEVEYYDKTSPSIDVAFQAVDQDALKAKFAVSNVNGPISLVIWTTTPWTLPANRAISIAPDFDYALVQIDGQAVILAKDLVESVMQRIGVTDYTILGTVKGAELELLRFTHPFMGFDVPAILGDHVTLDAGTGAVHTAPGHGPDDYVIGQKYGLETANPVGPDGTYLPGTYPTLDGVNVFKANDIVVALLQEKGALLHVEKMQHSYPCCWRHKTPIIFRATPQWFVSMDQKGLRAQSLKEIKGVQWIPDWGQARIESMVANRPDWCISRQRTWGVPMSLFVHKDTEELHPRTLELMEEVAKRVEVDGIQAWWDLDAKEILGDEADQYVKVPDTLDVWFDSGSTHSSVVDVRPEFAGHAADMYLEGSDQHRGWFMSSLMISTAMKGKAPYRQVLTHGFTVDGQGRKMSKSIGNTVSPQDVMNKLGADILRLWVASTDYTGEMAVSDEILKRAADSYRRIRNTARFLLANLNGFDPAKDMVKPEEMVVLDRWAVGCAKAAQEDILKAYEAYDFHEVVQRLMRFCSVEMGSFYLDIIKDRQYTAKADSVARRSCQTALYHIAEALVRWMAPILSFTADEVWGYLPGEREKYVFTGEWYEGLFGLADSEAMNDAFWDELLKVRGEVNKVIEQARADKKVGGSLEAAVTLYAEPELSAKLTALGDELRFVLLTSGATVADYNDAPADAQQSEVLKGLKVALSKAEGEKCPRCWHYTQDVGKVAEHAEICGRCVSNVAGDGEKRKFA
Sequence of Leucyl-tRNA synthetase (LeuRS) (P07813 whole entry, looked up): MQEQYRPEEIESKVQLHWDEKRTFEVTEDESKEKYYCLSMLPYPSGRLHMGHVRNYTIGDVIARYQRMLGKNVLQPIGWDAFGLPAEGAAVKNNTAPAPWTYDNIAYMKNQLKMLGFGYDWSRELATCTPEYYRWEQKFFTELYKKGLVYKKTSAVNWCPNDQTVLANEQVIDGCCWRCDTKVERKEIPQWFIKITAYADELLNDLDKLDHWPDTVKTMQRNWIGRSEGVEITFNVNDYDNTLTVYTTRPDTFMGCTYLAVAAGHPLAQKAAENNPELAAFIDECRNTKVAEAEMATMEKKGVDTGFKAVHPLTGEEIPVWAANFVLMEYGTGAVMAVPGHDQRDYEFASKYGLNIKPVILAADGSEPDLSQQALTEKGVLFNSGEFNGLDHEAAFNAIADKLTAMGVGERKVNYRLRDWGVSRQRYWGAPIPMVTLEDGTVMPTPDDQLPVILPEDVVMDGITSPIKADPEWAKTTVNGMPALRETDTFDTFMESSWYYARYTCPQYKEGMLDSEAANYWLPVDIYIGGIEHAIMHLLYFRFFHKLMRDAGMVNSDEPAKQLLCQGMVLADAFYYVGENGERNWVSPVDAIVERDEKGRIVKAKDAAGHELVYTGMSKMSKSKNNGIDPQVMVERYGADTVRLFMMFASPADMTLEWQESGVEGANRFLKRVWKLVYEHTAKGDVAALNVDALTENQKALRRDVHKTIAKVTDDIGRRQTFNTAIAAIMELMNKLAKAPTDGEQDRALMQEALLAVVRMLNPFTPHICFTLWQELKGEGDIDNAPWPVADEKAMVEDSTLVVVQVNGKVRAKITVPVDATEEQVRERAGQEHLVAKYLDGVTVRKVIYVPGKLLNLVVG

With CC(C)C[C@H](N)C(=O)N=[S@](N)(=O)c1scc(F)c1F.Cl [ANASIA-103-1] the IC50 [1] was 0.0195 µM, the IC50 at 24 h [2] was over 64 µg/mL and the “Reduction in burden from vehicle control, Bladder 72 hr” value (“Reduction in burden … Bladder 72 hr” for short) (E. coli UT189; 5 mg/kg/dose sc every 4 hours) was 1.28 Log10 cfu/g or mL. For the same molecule, the “Reduction in burden from vehicle control, Kidney 72 hr” value (“Reduction in burden … Kidney 72 hr” below) (E. coli UT189; 5 mg/kg/dose sc every 4 hours) was 0.93 Log10 cfu/g or mL, the “Reduction in burden from vehicle control, Urine 48 hr” value (from here on “Reduction in burden … Urine 48 hr”) (E. coli UT189; 5 mg/kg/dose sc every 4 hours) was 1.36 Log10 cfu/g or mL and the “Reduction in burden from vehicle control, Urine 72 hr” value (from here on “Reduction in burden … Urine 72 hr”) (E. coli UT189; 5 mg/kg/dose sc every 4 hours) was 0.11 Log10 cfu/g or mL. For the same molecule, the “Reduction in burden … Bladder 72 hr” value (E. coli UT189; 15 mg/kg/dose sc every 4 hours) was 2.08 Log10 cfu/g or mL, the “Reduction in burden … Kidney 72 hr” value (E. coli UT189; 15 mg/kg/dose sc every 4 hours) was 2.28 Log10 cfu/g or mL and the “Reduction in burden … Urine 48 hr” value (E. coli UT189; 15 mg/kg/dose sc every 4 hours) was 2.14 Log10 cfu/g or mL. For the same molecule, the “Reduction in burden … Urine 72 hr” value (E. coli UT189; 15 mg/kg/dose sc every 4 hours) was 2.71 Log10 cfu/g or mL, the “Reduction in burden … Bladder 72 hr” value (E. coli UT189; 45 mg/kg/dose sc every 4 hours) was 1.49 Log10 cfu/g or mL and the “Reduction in burden … Kidney 72 hr” value (E. coli UT189; 45 mg/kg/dose sc every 4 hours) was 1.25 Log10 cfu/g or mL. The “Reduction in burden … Urine 48 hr” value (E. coli UT189; 45 mg/kg/dose sc every 4 hours) was 1.74 Log10 cfu/g or mL, the “Reduction in burden … Urine 72 hr” value (E. coli UT189; 45 mg/kg/dose sc every 4 hours) was 2.64 Log10 cfu/g or mL and the MIC ([3]; Acinetobacter baumannii, read-out: Antibacterial Activity (MIC), E = A. baumannii B1931) was 16 µg/mL. For the same molecule, the MIC ([3]; Escherichia coli, ATCC25922, read-out: Antibacterial Activity (MIC), A = E. coli ATCC 25922) was 1 µg/mL, the MIC ([3]; Escherichia coli, BAA2469, read-out: Antibacterial Activity (MIC), G = E. coli BAA-2469) was 10.1 µg/mL and the MIC ([3]; Haemophilus influenzae, ATCC49247, read-out: Antibacterial Activity (MIC), F = H. influenzae ATCC 49247) was 1 µg/mL. The MIC ([3]; Klebsiella pneumoniae, ATCC700603, read-out: Antibacterial Activity (MIC), C = K. pneumoniae ATCC 700603) was 64 µg/mL, the MIC ([3]; Pseudomonas aeruginosa, ATCC27853, read-out: Antibacterial Activity (MIC), D = P. aeruginosa ATCC 27853) was 64 µg/mL and the “Reduction in burden from vehicle control, Blood” value (from here on “Reduction in burden … Blood”) (E. coli ATCC 25922; [6]) was 0.32 Log10 cfu/g or mL. For the same molecule, the “Reduction in burden from vehicle control, Kidney” value (E. coli ATCC 25922; [6]) was 1.26 Log10 cfu/g or mL, the “Reduction in burden from vehicle control, Spleen” value (from here on “Reduction in burden … Spleen”) (E. coli ATCC 25922; [6]) was 0.60 Log10 cfu/g or mL and the “Reduction in burden … Blood” value (E. coli ATCC 25922; [7]) was 0.43 Log10 cfu/g or mL. The “Reduction in burden from vehicle control, Kidney” value (E. coli ATCC 25922; [7]) was 1.28 Log10 cfu/g or mL, the “Reduction in burden … Spleen” value (E. coli ATCC 25922; [7]) was 1.46 Log10 cfu/g or mL and the “Reduction in burden … Blood” value (E. coli ATCC 25922; [8]) was 1.26 Log10 cfu/g or mL. For the same molecule, the “Reduction in burden from vehicle control, Kidney” value (E. coli ATCC 25922; [8]) was 1.66 Log10 cfu/g or mL, the “Reduction in burden … Spleen” value (E. coli ATCC 25922; [8]) was 1.64 Log10 cfu/g or mL and the “Reduction in burden … Blood” value (E. coli ATCC 25922; [9]) was 0.81 Log10 cfu/g or mL. The “Reduction in burden from vehicle control, Kidney” value (E. coli ATCC 25922; [9]) was 1.59 Log10 cfu/g or mL, the “Reduction in burden … Spleen” value (E. coli ATCC 25922; [9]) was 1.61 Log10 cfu/g or mL and the “Reduction in burden … Blood” value (E. coli ATCC 25922; [10]) was 2.18 Log10 cfu/g or mL. For the same molecule, the “Reduction in burden from vehicle control, Kidney” value (E. coli ATCC 25922; [10]) was 3.06 Log10 cfu/g or mL and the “Reduction in burden … Spleen” value (E. coli ATCC 25922; [10]) was 2.24 Log10 cfu/g or mL.
For CC(C)[C@H](N)C(=O)N=S(N)(=O)c1cc2sccc2s1 (stereo partly shown) [ANASIA-118], the IC50 [4] was 52.9 µM and the IC50 [5] was 38.6 µM.
Molecule CC(C)[C@H](N)C(=O)N=[S@](N)(=O)c1cccc(OC(F)F)c1 [ANASIA-117-1] has an IC50 ([5]; E. coli ValRS, read-out: Enzyme Inhibition - IC50, E. coli ValRS) of 47.9 µM.
In the case of CC(C)C[C@H](N)C(=O)N=[S@@](N)(=O)c1cccs1.Cl [ANASIA-007-2, (S)-2-amino-N—((R)-amino(oxo) (thiophen-2-yl)-λ6-sulfanylidene)-4-methyl pentanamide hydrochloride], the IC50 ([1]; E. coli LeuRS, read-out: Enzyme Inhibition - IC50, E. coli LeuRS) is reported as 4.9 µM and the “Cytotoxicity in HepG2 ATCC HB-8065 Cell Line, IC50” value (HepG2 ATCC HB-8065 cells) is reported as over 64.0 µg/mL.
With CC(C)[C@H](N)C(=O)N=S(N)(=O)c1cccc2ccccc12 (stereo partly shown) [ANASIA-025] the IC50 ([4]; E. coli IleRS, read-out: Enzyme Inhibition - IC50, E. coli IleRS) was over 100 µM, the IC50 at 24 h [2] was over 64 µg/mL and the IC50 [5] was 21.9 µM.
